The target of one data set is PPARδ (Homo sapiens (Human), UniProt Q03181). Kind of data set: Nuclear receptor reporter gene (luciferase) screening model, PPARδ activation in HepG2 cells. Type of data set: cell-based. Conditions: for Experiment results (relative activation fold) PPARδ: HepG2, solvent control = 1; for EC50: HepG2 reporter gene, 6 concentrations; for activation effect on PPARδ receptor (in words): screening results. The text has this:
(§1) Using a reporter gene method, a screening model for screening a nuclear receptor agonist in living cells is designed on the basis of the principal that a nuclear receptor can activate transcription of its downstream gene after being activated. A reporter gene plasmid is constructed, in which the DNA binding sequence for the nuclear receptor (NRE) is inserted at the upstream of a luciferase gene, such that the expression of the luciferase gene is regulated by the nuclear receptor. The reporter gene plasmid is transferred into a cell simultaneously with the nuclear receptor. The nuclear receptor will be activated when a nuclear receptor agonist presents in the cell culture medium. The receptor being activated can induce the expression of the luciferase gene, while the amount of generated luciferase can be determined with its luminescent substrate. In this way, the intensity of activation of the nuclear receptor by the compound can be determined by observing the luminescence intensity. For the calibration of the experimental error caused by factors such as transfection efficiency, amount of inoculated cells, toxicity of the compound, etc, a GFP plasmid is co-transfected simultaneously as the internal reference. In the analysis of the experimental results, the luminescent values tested for all wells are calibrated with GFP values. The experimental results are expressed as relative activation fold, with a value of 1 for the solvent control. The greater the fold is, the higher the activation capacity represents.
(§2) The detailed procedure is described as follows:
(§3) Hepatocarcinoma cell HepG2 (from ATCC, American Type Culture Collection) was cultured in a DMEM medium supplemented with 10% heat-inactivated fetal bovine serum (FBS, Invitogen, Grand Island, N.Y., USA) in a T-75 culture flask (Greiner, Germany) placed in a 5% CO2 incubator at 37° C. and 100% relative humidity.
(§4) On the next day, when the cells in the 96-well culture plate grew up to 50-80% confluency, cell transfection was performed. The cell co-transfection system comprised FuGene6 transfection agent (Roche Molecular Biochemicals, Indianapolis, Ind., U.S.A.) and 60 ng DNA (10 ng hRXR, 10 ng pCMV βGal, 10 ng nuclear receptor expression plasmid RXR/PPARα, δ, γ, 30 ng GFP fluorescence reporter gene plasmid, respectively).
(§5) The cell culture medium was discarded immediately after 24 hours of transfection and replaced by 200 μl fresh DMEM medium containing the test medicament (with 10% FBS treated by activated carbon). The final concentration gradients of the test medicament were 10 μM, 5 μM, 1 μM, 0.1 μM, 0.01 μM, 0.001 μM, and 0 μM. 0.05 μM 2-bromostearic acid (purchased from Sigma, USA) was used as the positive control. The final concentration of DMSO in each well was 0.1%.
(§6) After 24 h treatment with the medicament, the cells were lysed with a lysis solution (Cell Culture Lysis buffer, Promega) and centrifuged, and the supernatant was collected. The supernatant was reacted with a fluorescence assay kit (Promega) and counted by a fluorometer (Ascent Fluoroskan FL reader, Thermo Labsystems, Finland), and the relative intensity of luciferase was determined. For the assay of the β-galactosidase activity used in the experiment as the internal reference (the internal reference for calibrating the transfection efficiency), 50 μl of the supernatant was transferred into a fresh microplate, treated with a Promega kit, and the value was read with a microplate reader at a wavelength of 405 nm (Bio-tech Instruments Inc., Winooski, Vt., USA) (Sauerberg, P.; Olsen, G. S.; Jeppesen, L.; Mogensen, J. P. et al., J. Med. Chem., 2007, 50, 1495-1503).
(§7) In the present screening protocol, it was calculated according to the activation of the receptor by the sample at 6 different concentrations.
(§8) The concentration-activity profile of the effects of a compound was fitted by carrying out iterative computation according to the following formula, and corresponding EC50 was calculated: […]

A further data set concerns the target PPARγ (Homo sapiens (Human), UniProt P37231). Kind of data set: Nuclear receptor reporter gene (luciferase) screening model, PPARγ activation in HepG2 cells. It counts as cell-based. As to conditions: for Experiment results (relative activation fold) PPARγ: HepG2, solvent control = 1; for EC50: HepG2 reporter gene, 6 concentrations; for activation effect on PPARγ receptor (in words): screening results.
Source text: as §1, §2, §3, §4, §5, §6, §7, §8
For orientation: A reporter such as luciferase makes a cellular process visible.

The target in a further data set is PPARα (Homo sapiens (Human), UniProt Q07869). Kind of data set: Nuclear receptor reporter gene (luciferase) screening model, PPARα activation in HepG2 cells. Conditions: for Experiment results (relative activation fold) PPARα: HepG2, solvent control = 1; for EC50: HepG2 reporter gene, 6 concentrations; for activation effect on PPARα receptor (in words): screening results. Type of data set: cell-based.
Source text: as §1, §2, §3, §4, §5, §6, §7, §8

Data set [1] in a line: Acute toxicity (LD50, autopsy). Type of data set: in vivo. Conditions: orally. The text has this: In the autopsy, no visible obvious injure was found in main visceral organs, and there was no statistical difference in the change in organ coefficient.

Molecules are shown by their SMILES.

PPARα, sequence (Q07869 whole entry, species assumed): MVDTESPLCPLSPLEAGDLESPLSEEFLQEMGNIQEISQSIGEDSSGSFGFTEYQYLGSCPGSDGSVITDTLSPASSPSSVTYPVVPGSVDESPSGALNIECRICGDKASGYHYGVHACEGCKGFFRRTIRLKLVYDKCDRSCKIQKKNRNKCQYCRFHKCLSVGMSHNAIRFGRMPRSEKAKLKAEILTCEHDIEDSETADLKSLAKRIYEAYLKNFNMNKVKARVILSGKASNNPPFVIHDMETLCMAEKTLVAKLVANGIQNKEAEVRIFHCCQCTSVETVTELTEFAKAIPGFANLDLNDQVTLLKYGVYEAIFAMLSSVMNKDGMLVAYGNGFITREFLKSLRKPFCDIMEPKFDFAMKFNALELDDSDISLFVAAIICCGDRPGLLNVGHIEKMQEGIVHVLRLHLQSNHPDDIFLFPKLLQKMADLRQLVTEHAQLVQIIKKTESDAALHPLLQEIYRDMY
PPARα, sequence (P19793 whole entry partner, species assumed): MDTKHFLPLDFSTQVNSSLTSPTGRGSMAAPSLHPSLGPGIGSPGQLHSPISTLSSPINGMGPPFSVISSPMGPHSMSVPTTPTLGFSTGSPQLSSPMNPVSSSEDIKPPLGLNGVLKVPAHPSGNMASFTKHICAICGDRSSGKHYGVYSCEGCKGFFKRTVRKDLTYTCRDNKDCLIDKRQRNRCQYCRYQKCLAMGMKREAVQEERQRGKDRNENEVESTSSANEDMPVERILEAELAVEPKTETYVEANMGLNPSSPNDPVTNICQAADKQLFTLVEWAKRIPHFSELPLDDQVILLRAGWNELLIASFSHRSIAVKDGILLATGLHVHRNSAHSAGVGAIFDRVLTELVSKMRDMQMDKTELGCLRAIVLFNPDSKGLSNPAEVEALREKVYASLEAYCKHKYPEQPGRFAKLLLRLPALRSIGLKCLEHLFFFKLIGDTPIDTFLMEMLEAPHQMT
PPARδ, sequence (Q03181 whole entry, species assumed): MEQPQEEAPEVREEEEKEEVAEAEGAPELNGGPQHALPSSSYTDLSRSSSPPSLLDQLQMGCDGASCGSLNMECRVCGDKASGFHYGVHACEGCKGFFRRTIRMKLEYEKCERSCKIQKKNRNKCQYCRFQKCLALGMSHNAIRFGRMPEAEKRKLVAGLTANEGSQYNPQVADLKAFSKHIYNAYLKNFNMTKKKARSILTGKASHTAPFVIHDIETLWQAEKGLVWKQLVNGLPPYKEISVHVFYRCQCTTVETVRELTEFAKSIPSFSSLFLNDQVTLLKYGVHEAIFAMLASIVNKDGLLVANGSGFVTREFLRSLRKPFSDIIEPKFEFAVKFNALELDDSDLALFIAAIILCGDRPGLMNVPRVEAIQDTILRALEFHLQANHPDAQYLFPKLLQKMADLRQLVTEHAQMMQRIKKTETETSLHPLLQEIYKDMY
PPARδ, sequence (P19793 whole entry partner, species assumed): as the sequence (P19793 whole entry partner, species assumed) above
PPARγ, sequence (P37231 whole entry, species assumed): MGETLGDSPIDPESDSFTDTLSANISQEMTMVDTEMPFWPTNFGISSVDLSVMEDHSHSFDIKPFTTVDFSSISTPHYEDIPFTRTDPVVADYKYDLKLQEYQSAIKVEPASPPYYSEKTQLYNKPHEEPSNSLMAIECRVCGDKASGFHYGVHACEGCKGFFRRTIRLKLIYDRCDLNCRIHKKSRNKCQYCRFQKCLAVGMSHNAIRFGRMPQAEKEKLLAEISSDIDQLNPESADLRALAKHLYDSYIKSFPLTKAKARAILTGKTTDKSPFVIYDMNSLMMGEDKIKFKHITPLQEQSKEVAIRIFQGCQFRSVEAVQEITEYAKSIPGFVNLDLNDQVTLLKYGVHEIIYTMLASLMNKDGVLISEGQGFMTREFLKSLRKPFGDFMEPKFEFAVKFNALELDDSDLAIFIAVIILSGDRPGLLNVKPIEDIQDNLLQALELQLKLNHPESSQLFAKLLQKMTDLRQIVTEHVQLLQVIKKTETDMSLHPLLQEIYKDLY
PPARγ, sequence (P19793 whole entry partner, species assumed): as the sequence (P19793 whole entry partner, species assumed) above

For `CCc1cc(OCCc2nc(-c3ccc([N+](=O)[O-])cc3)oc2C)ccc1CCC(=O)O` [Compound 7], the “Experiment results (relative activation fold) PPARδ” value on PPARδ (0.001 uM) amounted to 1.66 fold; on PPARδ (0.01 uM), 2.72 fold; at PPARδ (0.1 uM), 2.99 fold; on PPARδ (1 uM) it was 3.70 fold; at PPARδ (5 uM), 3.60 fold; on PPARδ (10 uM), 3.38 fold. In addition, the EC50 (as a rule, the concentration that produces a half-maximal response) on PPARδ is 3 nM; at PPARγ it was 25 nM; at PPARα it was 2880 nM. In addition, the “Experiment results (relative activation fold) PPARγ” value is 1.29 fold at PPARγ (0.001 uM); 1.86 fold on PPARγ (0.01 uM); 3.30 fold at PPARγ (0.1 uM); 3.80 fold on PPARγ (1 uM); 4.08 fold at PPARγ (5 uM); 4.35 fold on PPARγ (10 uM). Further, the “Experiment results (relative activation fold) PPARα” value at PPARα (0.001 uM) amounted to 1.15 fold; on PPARα (0.01 uM), 1.32 fold; on PPARα (0.1 uM), 1.42 fold; on PPARα (1 uM) it was 1.55 fold; on PPARα (5 uM), 1.66 fold; on PPARα (10 uM), 1.94 fold.
With `CCc1cc(OCCc2nc(-c3ccc(C(F)(F)F)cc3)oc2C)ccc1CCC(=O)O` [Compound 3], the “Experiment results (relative activation fold) PPARδ” value on PPARδ (0.001 uM) was 1.11 fold; on PPARδ (0.01 uM), 1.17 fold; at PPARδ (0.1 uM), 1.22 fold; on PPARδ (1 uM) it was 1.34 fold; at PPARδ (5 uM), 1.50 fold; on PPARδ (10 uM), 1.94 fold. In addition, the 50% effective concentration (EC50) is under 1 nM on PPARδ, 5 nM at PPARγ and 4 nM on PPARα. Besides, at PPARδ, the “activation effect on PPARδ receptor (in words)” value is listed as “better activation effects”. For the same compound, the “Experiment results (relative activation fold) PPARγ” value at PPARγ (0.001 uM) is recorded as 1.10 fold; at PPARγ (0.01 uM), 1.30 fold; at PPARγ (0.1 uM), 1.32 fold; at PPARγ (1 uM), 1.56 fold; at PPARγ (5 uM) it was 1.78 fold; on PPARγ (10 uM) it was 2.06 fold. In addition, at PPARγ, the “activation effect on PPARγ receptor (in words)” value is “better activation effects”. Moreover, the “Experiment results (relative activation fold) PPARα” value on PPARα (0.001 uM) is 0.99 fold; on PPARα (0.01 uM) it was 1.11 fold; at PPARα (0.1 uM), 1.19 fold; on PPARα (1 uM), 1.28 fold; on PPARα (5 uM) it was 1.33 fold; on PPARα (10 uM) it was 1.79 fold. Besides, the “activation effect on PPARα receptor (in words)” value on PPARα is recorded as “better activation effects”.
Consider `CCc1cc(OCCc2nc(-c3ccc(C)cc3)oc2C)ccc1CCC(=O)O` [Compound 5], for which the “Experiment results (relative activation fold) PPARδ” value amounted to 1.57 fold on PPARδ (0.001 uM); 2.44 fold on PPARδ (0.01 uM); 3.61 fold at PPARδ (0.1 uM); 3.69 fold on PPARδ (1 uM); 3.57 fold at PPARδ (5 uM); 4.64 fold at PPARδ (10 uM). The EC50 on PPARδ was found to be 7 nM; at PPARγ, 4 nM; at PPARα, 1180 nM. The “activation effect on PPARδ receptor (in words)” value at PPARδ is listed as “better activation effects”. Besides, the “Experiment results (relative activation fold) PPARγ” value at PPARγ (0.001 uM) is 1.98 fold; on PPARγ (0.01 uM), 2.99 fold; at PPARγ (0.1 uM), 3.75 fold; on PPARγ (1 uM), 3.95 fold; on PPARγ (5 uM), 3.82 fold; at PPARγ (10 uM), 4.11 fold. Besides, at PPARγ, the “activation effect on PPARγ receptor (in words)” value is “better activation effects”. Besides, the “Experiment results (relative activation fold) PPARα” value at PPARα (0.001 uM) is recorded as 1.33 fold; on PPARα (0.01 uM), 1.45 fold; at PPARα (0.1 uM), 1.37 fold; on PPARα (1 uM), 1.58 fold; on PPARα (5 uM) it was 1.98 fold; on PPARα (10 uM), 1.91 fold. Also, at PPARα, the “activation effect on PPARα receptor (in words)” value is listed as “better activation effects”.
For the compound `CN(CCOc1ccc(CC2SC(=O)NC2=O)cc1)c1ccccn1` (stereo not shown) [rosiglitazone], in data set [1], the LD50 (as a rule, the dose at which mortality reaches 50%) was 3000 to 4000 mg/kg.
`CCc1cc(OCCc2nc(-c3ccc(C(C)(C)C)cc3)oc2C)ccc1CCC(=O)O` [Compound 4]: the “Experiment results (relative activation fold) PPARδ” value was 1.45 fold at PPARδ (0.001 uM); 1.53 fold at PPARδ (0.01 uM); 2.25 fold on PPARδ (0.1 uM); 3.51 fold at PPARδ (1 uM); 4.22 fold on PPARδ (5 uM); 4.60 fold on PPARδ (10 uM). Also, the EC50 at PPARδ amounted to 851 nM; on PPARγ it was 89 nM; on PPARα, 5500 nM. In addition, the “Experiment results (relative activation fold) PPARγ” value is on record as 2.70 fold at PPARγ (0.001 uM); 3.78 fold on PPARγ (0.01 uM); 3.81 fold on PPARγ (0.1 uM); 5.17 fold at PPARγ (1 uM); 4.19 fold on PPARγ (5 uM); 5.88 fold at PPARγ (10 uM). For the same compound, the “Experiment results (relative activation fold) PPARα” value at PPARα (0.001 uM) was found to be 1.14 fold; at PPARα (0.01 uM), 1.20 fold; at PPARα (0.1 uM) it was 1.18 fold; on PPARα (1 uM), 1.65 fold; on PPARα (5 uM), 2.31 fold; on PPARα (10 uM), 2.96 fold.

The record behind these values is patent publication US9346770B2, “Compounds having activating effect on subtypes of peroxisome proliferator-activated receptors and its preparation method and uses” (ZHEJIANG HISUN PHARMACEUTICAL CO., LTD., priority 2010, dated 2016).
